Source: patent US6613718B2, “Aryl ether derivatives and processes for their preparation and herbicidal and desiccant compositions containing them” (Ishihara Sangyo Kaisha, Ltd., priority 2001, dated 2003)

Legend:
Type in all cases: in vivo
[1] = Pre-emerge herbicidal activity of mixtures with Compound 1-1 and other herbicides, observed 64 days after treatment; details: 1-1 alone 50 g ai/ha
Method: (§1) The data in Table XI and Table XII show the results when compounds 1-1 and 2-1 were tested as mixtures with other herbicides. Observations in Table XI were made 64 days after treatment while those in Table XII were made 56 days after treatment.

[2] = Pre-emerge herbicidal activity of mixtures with Compound 2-1 and other herbicides, observed 56 days after treatment; details: 2-1 alone 200 g ai/ha
Method: as §1

[3] = tested on: ivyleaf morningglory (Ipomoea hederacea, IPOHE); assay: Pre-emerge greenhouse herbicide activity screening, phytotoxicity rating; details: 14 days after application
Procedure, shortened: (§2)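 For foliar (post-emergence) testing, 2-3 leaf seedlings were sprayed with acetone solutions including 0.25% v/v non-ionic surfactant, rates 15–1000 g ai/ha, then bottom-watered. Soil-applied (pre-emergence) tests used pots sown one day before spraying. Ratings, 0–100, were made at 14 days.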

[4] = tested on: barnyardgrass (Echinochloa crus-galli, ECHCG); assay: as above; details: 14 days after application
Procedure, shortened: as §2

[5] = tested on: lambsquarters (Chenopodium album, CHEAL); assay: as above; details: 14 days after application
Procedure, shortened: as §2

[6] = tested on: redroot pigweed (Amaranthus retroflexus, AMARE); assay: as above; details: 14 days after application
Procedure, shortened: as §2

[7] = tested on: green foxtail (Setaria viridis, SETVI); assay: as above; details: 14 days after application
Procedure, shortened: as §2

[8] = tested on: johnsongrass (Sorghum halepense, SORHA); assay: as above; details: 14 days after application
Procedure, shortened: as §2

[9] = tested on: large crabgrass (Digitaria sanguinalis, DIGSA); assay: as above; details: 14 days after application
Procedure, shortened: as §2

[10] = tested on: sicklepod (Cassia obtusifolia, CASOB); assay: as above; details: 14 days after application
Procedure, shortened: as §2

[11] = tested on: velvetleaf (Abutilon theophrasti, ABUTH); assay: as above; details: 14 days after application
Procedure, shortened: as §2

[12] = tested on: common ragweed (Ambrosia artemisiifolia L., AMBEL); assay: as above; details: 14 days after application
Procedure, shortened: as §2

[13] = tested on: upland rice (Oryza sp., var.Tebonnet, RICE); assay: Post-emerge greenhouse screening, crop safety (phytotoxicity rating); details: 14 days after application
Procedure, shortened: as §2

[14] = tested on: soybean (Glycine max L., var. Pella 86, SOY); assay: as above; details: 14 days after application
Procedure, shortened: as §2

[15] = tested on: field corn (Zea mays L., var. Dekalb 535, CORN); assay: Pre-emerge greenhouse screening, crop safety (phytotoxicity rating); details: 14 days after application
Procedure, shortened: as §2

[16] = tested on: upland rice (Oryza sp., var.Tebonnet, RICE); assay: as above; details: 14 days after application
Procedure, shortened: as §2

[17] = tested on: soybean (Glycine max L., var. Pella 86, SOY); assay: as above; details: 14 days after application
Procedure, shortened: as §2

[18] = tested on: ivyleaf morningglory (Ipomoea hederacea, IPOHE); assay: Post-emerge greenhouse herbicide activity screening, phytotoxicity rating; details: 14 days after application
Procedure, shortened: as §2

[19] = tested on: barnyardgrass (Echinochloa crus-galli, ECHCG); assay: as above; details: 14 days after application
Procedure, shortened: as §2

[20] = tested on: lambsquarters (Chenopodium album, CHEAL); assay: as above; details: 14 days after application
Procedure, shortened: as §2

[21] = tested on: redroot pigweed (Amaranthus retroflexus, AMARE); assay: as above; details: 14 days after application
Procedure, shortened: as §2

[22] = tested on: green foxtail (Setaria viridis, SETVI); assay: as above; details: 14 days after application
Procedure, shortened: as §2

[23] = tested on: johnsongrass (Sorghum halepense, SORHA); assay: as above; details: 14 days after application
Procedure, shortened: as §2

[24] = tested on: large crabgrass (Digitaria sanguinalis, DIGSA); assay: as above; details: 14 days after application
Procedure, shortened: as §2

[25] = tested on: sicklepod (Cassia obtusifolia, CASOB); assay: as above; details: 14 days after application
Procedure, shortened: as §2

[26] = tested on: velvetleaf (Abutilon theophrasti, ABUTH); assay: as above; details: 14 days after application
Procedure, shortened: as §2

[27] = tested on: common ragweed (Ambrosia artemisiifolia L., AMBEL); assay: as above; details: 14 days after application
Procedure, shortened: as §2

[28] = tested on: field corn (Zea mays L., var. Dekalb 535, CORN); assay: Post-emerge greenhouse screening, crop safety / corn selectivity (phytotoxicity rating); details: 14 days after application
Procedure, shortened: as §2

Cn1c(C(F)(F)F)cc(=O)n(-c2cc(Oc3ncccn3)c(Cl)cc2F)c1=S [1-1.]
ABUTH pre-emerge herbicidal activity ([1]; ABUTH): 87
AMARE pre-emerge herbicidal activity ([1]; AMARE): 93
AMBEL pre-emerge herbicidal activity ([1]; AMBEL): 92
CHEAL pre-emerge herbicidal activity ([1]; CHEAL): 95
CORN damage, pre-emerge ([1]; CORN): 0
SETVI pre-emerge herbicidal activity ([1]; SETVI): 90

Cn1c(=S)n(C)c(=O)n(-c2cc(Oc3ncccn3)c(Cl)cc2F)c1=O [2-1.]
ABUTH pre-emerge herbicidal activity ([2]; ABUTH): 95
AMARE pre-emerge herbicidal activity ([2]; AMARE): 93
AMBEL pre-emerge herbicidal activity ([2]; AMBEL): 95
CHEAL pre-emerge herbicidal activity ([2]; CHEAL): 95
CORN damage, pre-emerge ([2]; CORN): 0
SETVI pre-emerge herbicidal activity ([2]; SETVI): 90

N#Cc1c(-c2cc(Oc3ncccn3)c(Cl)cc2F)nn2c1CCCC2 [Compound 6-17]
IPOHE phytotoxicity rating (0-100 scale) ([3]; 125 g ai/ha): 0
IPOHE phytotoxicity rating (0-100 scale) ([3]; 250 g ai/ha): 0
ECHCG phytotoxicity rating (0-100 scale) ([4]; 125 g ai/ha): 60
ECHCG phytotoxicity rating (0-100 scale) ([4]; 250 g ai/ha): 98
CHEAL phytotoxicity rating (0-100 scale) ([5]; 125 g ai/ha): 100
CHEAL phytotoxicity rating (0-100 scale) ([5]; 250 g ai/ha): 100
AMARE phytotoxicity rating (0-100 scale) ([6]; 125 g ai/ha): 100
AMARE phytotoxicity rating (0-100 scale) ([6]; 250 g ai/ha): 100
SETVI phytotoxicity rating (0-100 scale) ([7]; 125 g ai/ha): 100
SETVI phytotoxicity rating (0-100 scale) ([7]; 250 g ai/ha): 100
SORHA phytotoxicity rating (0-100 scale) ([8]; 125 g ai/ha): 95
SORHA phytotoxicity rating (0-100 scale) ([8]; 250 g ai/ha): 98
DIGSA phytotoxicity rating (0-100 scale) ([9]; 125 g ai/ha): 99
DIGSA phytotoxicity rating (0-100 scale) ([9]; 250 g ai/ha): 100
CASOB phytotoxicity rating (0-100 scale) ([10]; 125 g ai/ha): 0
CASOB phytotoxicity rating (0-100 scale) ([10]; 250 g ai/ha): 25
ABUTH phytotoxicity rating (0-100 scale) ([11]; 125 g ai/ha): 85
ABUTH phytotoxicity rating (0-100 scale) ([11]; 250 g ai/ha): 100
AMBEL phytotoxicity rating (0-100 scale) ([12]; 125 g ai/ha): 35
AMBEL phytotoxicity rating (0-100 scale) ([12]; 250 g ai/ha): 25
RICE crop damage, phytotoxicity rating (0-100 scale) ([13]; 125 g ai/ha): 80
RICE crop damage, phytotoxicity rating (0-100 scale) ([13]; 250 g ai/ha): 80
SOY crop damage, phytotoxicity rating (0-100 scale) ([14]; 125 g ai/ha): 70
SOY crop damage, phytotoxicity rating (0-100 scale) ([14]; 250 g ai/ha): 70
CORN crop damage, phytotoxicity rating (0-100 scale) ([15]; 125 g ai/ha): 0
CORN crop damage, phytotoxicity rating (0-100 scale) ([15]; 250 g ai/ha): 0
RICE crop damage, phytotoxicity rating (0-100 scale) ([16]; 125 g ai/ha): 25
RICE crop damage, phytotoxicity rating (0-100 scale) ([16]; 250 g ai/ha): 35
SOY crop damage, phytotoxicity rating (0-100 scale) ([17]; 125 g ai/ha): 0
SOY crop damage, phytotoxicity rating (0-100 scale) ([17]; 250 g ai/ha): 0
IPOHE phytotoxicity rating (0-100 scale) ([18]; 125 g ai/ha): 100
IPOHE phytotoxicity rating (0-100 scale) ([18]; 250 g ai/ha): 100
ECHCG phytotoxicity rating (0-100 scale) ([19]; 125 g ai/ha): 60
ECHCG phytotoxicity rating (0-100 scale) ([19]; 250 g ai/ha): 65
CHEAL phytotoxicity rating (0-100 scale) ([20]; 125 g ai/ha): 100
CHEAL phytotoxicity rating (0-100 scale) ([20]; 250 g ai/ha): 100
AMARE phytotoxicity rating (0-100 scale) ([21]; 125 g ai/ha): 100
AMARE phytotoxicity rating (0-100 scale) ([21]; 250 g ai/ha): 100
SETVI phytotoxicity rating (0-100 scale) ([22]; 125 g ai/ha): 90
SETVI phytotoxicity rating (0-100 scale) ([22]; 250 g ai/ha): 90
SORHA phytotoxicity rating (0-100 scale) ([23]; 125 g ai/ha): 0
SORHA phytotoxicity rating (0-100 scale) ([23]; 250 g ai/ha): 30
DIGSA phytotoxicity rating (0-100 scale) ([24]; 125 g ai/ha): 0
DIGSA phytotoxicity rating (0-100 scale) ([24]; 250 g ai/ha): 25
CASOB phytotoxicity rating (0-100 scale) ([25]; 125 g ai/ha): 70
CASOB phytotoxicity rating (0-100 scale) ([25]; 250 g ai/ha): 95
ABUTH phytotoxicity rating (0-100 scale) ([26]; 125 g ai/ha): 100
ABUTH phytotoxicity rating (0-100 scale) ([26]; 250 g ai/ha): 100
AMBEL phytotoxicity rating (0-100 scale) ([27]; 125 g ai/ha): 60
AMBEL phytotoxicity rating (0-100 scale) ([27]; 250 g ai/ha): 75
CORN crop damage, phytotoxicity rating (0-100 scale) ([28]; 125 g ai/ha): 0
CORN crop damage, phytotoxicity rating (0-100 scale) ([28]; 250 g ai/ha): 5

O=[N+]([O-])c1ccccc1Oc1cc(-c2nn3c(c2Cl)CCCC3)c(F)cc1Cl [Compound 6-19]
IPOHE phytotoxicity rating (0-100 scale) ([3]; 250 g ai/ha): 0
ECHCG phytotoxicity rating (0-100 scale) ([4]; 250 g ai/ha): 50
CHEAL phytotoxicity rating (0-100 scale) ([5]; 250 g ai/ha): 100
AMARE phytotoxicity rating (0-100 scale) ([6]; 250 g ai/ha): 100
SETVI phytotoxicity rating (0-100 scale) ([7]; 250 g ai/ha): 95
SORHA phytotoxicity rating (0-100 scale) ([8]; 250 g ai/ha): 65
DIGSA phytotoxicity rating (0-100 scale) ([9]; 250 g ai/ha): 90
CASOB phytotoxicity rating (0-100 scale) ([10]; 250 g ai/ha): 75
ABUTH phytotoxicity rating (0-100 scale) ([11]; 250 g ai/ha): 65
AMBEL phytotoxicity rating (0-100 scale) ([12]; 250 g ai/ha): 50
RICE crop damage, phytotoxicity rating (0-100 scale) ([13]; 250 g ai/ha): 35
SOY crop damage, phytotoxicity rating (0-100 scale) ([14]; 250 g ai/ha): 40
CORN crop damage, phytotoxicity rating (0-100 scale) ([15]; 250 g ai/ha): 0
RICE crop damage, phytotoxicity rating (0-100 scale) ([16]; 250 g ai/ha): 0
SOY crop damage, phytotoxicity rating (0-100 scale) ([17]; 250 g ai/ha): 50
IPOHE phytotoxicity rating (0-100 scale) ([18]; 250 g ai/ha): 100
ECHCG phytotoxicity rating (0-100 scale) ([19]; 250 g ai/ha): 60
CHEAL phytotoxicity rating (0-100 scale) ([20]; 250 g ai/ha): 98
AMARE phytotoxicity rating (0-100 scale) ([21]; 250 g ai/ha): 100
SETVI phytotoxicity rating (0-100 scale) ([22]; 250 g ai/ha): 65
SORHA phytotoxicity rating (0-100 scale) ([23]; 250 g ai/ha): 50
DIGSA phytotoxicity rating (0-100 scale) ([24]; 250 g ai/ha): 50
CASOB phytotoxicity rating (0-100 scale) ([25]; 250 g ai/ha): 75
ABUTH phytotoxicity rating (0-100 scale) ([26]; 250 g ai/ha): 100
AMBEL phytotoxicity rating (0-100 scale) ([27]; 250 g ai/ha): 50
CORN crop damage, phytotoxicity rating (0-100 scale) ([28]; 250 g ai/ha): 3
